Experiments:
Format in all cases: functional, cell-based
PC-3 = test: Antiproliferative activity against human PC-3 cells assessed as inhibition of cell growth incubated for 72 hrs by MTT assay; conditions: PC-3, 72 h
SK-OV-3 = test: Antiproliferative activity against human SK-OV-3 cells assessed as inhibition of cell growth incubated for 72 hrs by MTT assay; conditions: SK-OV-3, 72 h
T47D = test: Antiproliferative activity against human T47D cells assessed as inhibition of cell growth incubated for 72 hrs by MTT assay

- IC50 (PC-3): 37.6 µM
- IC50 (SK-OV-3): 51.5 µM
- IC50 (T47D): 34.7 µM
Compound: CC(=O)O[C@H]1CC[C@@]2(C)C(=CC[C@@H]3[C@@H]2CC[C@]2(C)C(c4cccnc4)=CC[C@@H]32)C1 [ABIRATERONE ACETATE]
